# In patent US20230279372A1, “METHODS TO CONTROL LIPOKINE CONCENTRATIONS AND USES THEREOF” (Ohio State Innovation Foundation, priority 2020, published 2023):
# What was measured:
# [1] = test system: Wild-type C57BL/6 male mice; assay: Acute injection, in vivo cardiac hemodynamics (pressure-volume analysis) in wild-type mice; conditions: acute injection via femoral vein, 1.5 μg/kg; compared to mice injected with saline
# Text: (§1) Cardiac pressure-volume analysis. Hemodynamic, systolic, and diastolic measurements performed as previously done. Briefly, mice were anesthetized with 1% isoflurane and a 1.4 F Millar catheter was advanced from the carotid artery into the left ventricle. LV pressure-volume dynamics were simultaneously measured over a wide range of heart rates (240-600 bpm). For the TNT experiments, since there were different baseline heart rates, data was normalized to the lowest heart rate. For the acute injection experiments, 12,13-diHOME, 9,10-diHOME, or 9-HODE were infused through the femoral vein (all at 1.5 μg/kg). All pressure-volume loop parameters were calculated using PV loop analysis software module for Lab Chart on ADInstruments.
# Both +BAT and exercise improved cardiac function in mice and increased circulating 12,13-diHOME. To determine if 12,13-diHOME was responsible for the improved cardiac function in +BAT and exercise-trained mice, mice were acutely injected with 12,13-diHOME and in vivo cardiac hemodynamics were measured. Acute treatment of 12,13-diHOME improved systolic function (FIG. 3A; FIG. 8A) and diastolic function (FIG. 3B; FIG. 8B) compared to mice injected with saline. There was no effect of 9,10-diHOME or 9-HODE to alter systolic (FIG. 3A; FIG. 8A) or diastolic function (FIG. 3B; FIG. 8B).
# NOS1^−/− mice = assay: Acute injection of 12,13-diHOME, in vivo cardiac hemodynamics in NOS1−/− mice
# Text: as §1
# Next, the mechanism through which 12,13-diHOME modulates cardiomyocyte function and respiration was investigated. It was shown that nitric oxide (NO) production via NO synthase type 1 (NOS1) is essential for the beneficial effects of exercise to the heart. Since +BAT had similar effects on the heart as exercise, 12,13-diHOME can function through a similar mechanism. Mice deficient in NOS1 (NOS1^−/−) were acutely injected with 12,13-diHOME and in vivo cardiac hemodynamics were measured. […] In addition, 12,13-diHOME had no effect on NOS1^−/− cardiomyocyte peak shortening, Ca^2+ transients, or kinetics (FIGS. 5C-5F).
# isolated cardiomyocytes [2] = assay: Cardiomyocyte sarcomere function and calcium transient, wild-type cardiomyocytes; assay type: cell-based, mice; conditions: acute superfusion of 10 μM; vs vehicle
# Procedure: (§2) Measurements of Cardiomyocyte Sarcomere Function and Calcium Transient. Cardiomyocytes were isolated from wild-type C57BL/6 male mice (Charles River) or NOS1^−/− mice (B6; 129S4-Nos1^tm1Plh/J; stock no. 002633; Jackson Labs). Unloaded cardiomyocyte function (sarcomere shortening, kinetics and Ca^2+ transients) were measured as previously performed. In brief, hearts were rapidly excised and cannulated on a constant-flow Langendorff perfusion apparatus, and perfused via the aorta at 37° C. with buffer containing (in mM) 113 NaCl, 4.7 KCl, 0.6 KH2PO4, 0.6 Na2HPO4, 1.2 MgSO4, 12.4 BMD, 12 NaHCO3, 10 KHCO3, 10 HEPES 1M, and 30 Taurine, followed by digestion with liberase enzyme (0.25 mg/ml). After perfusion and digestion ventricles were removed and minced (under sterile conditions), filtered, and equilibrated with 1 mM CaCl2 and FBS at room temperature. Cardiomyocytes were plated on laminin-coated glass slides and placed on the stage of an inverted Olympus IX-71 microscope and superfused (˜1 ml/min at 30° C.) with contractile buffer containing (in mM, pH 7.4) 4 KCl, 131 NaCl, 1 MgCl2, 10 HEPES, 1 CaCl2), and 10 glucose. The cells were visualized using a 40× objective and field-stimulated at 1 Hz for 3 ms using a Myopacer Field-Stimulator system. Sarcomere length, time to contraction/relaxation and contraction/relaxation kinetics will were recorded using the IonOptix video imaging system and a Myocam-S Digital charge-coupled device camera. Changes in intracellular Ca^2+ levels were monitored using (0.5 μM) Fura-2 dual-excitation (360/380 nm) single emission (510 nm) ratiometric imaging. Measurements were taken at baseline and with acute superfusion of 10 μM 12,13-diHOME.
# NOS1^−/− cardiomyocyte = assay: Cardiomyocyte sarcomere function and calcium transient, NOS1−/− cardiomyocytes; assay type: cell-based, mice; conditions: vs PBS
# Procedure: as §2
# [3] = test system: cardiomyocytes constitutively expressing luciferase; assay: Cardiomyocyte fatty acid uptake (FFA-SS-Luc); assay type: cell-based, mice; conditions: 10 μM, 10 μM FFA-SS-Luc, after 30 min of incubation; vs vehicle
# Procedure: Cardiomyocyte Fatty Acid Uptake. Cardiomyocytes were isolated from 12-24 week old male LucTg (FVB-Tg(CAG-luc-GFP)L2G85Chco/J; stock no. 008450; Jackson Labs) chow-fed mice. Isolated cardiomyocytes (50,000 cells per well) were seeded onto laminin-coated 12-well plates according to standard protocols in FBS-free media for one hour. After one hour of serum-starve, 10 μm FFA-SS-Luc (Intrace Medical) conjugated probe was added to each well with or without 10 μM 12,13-diHOME directly before imaging using the IVIS Spectrum for […] optical imaging using sequential 3 min exposures for 30 min. Data were analyzed using Living Image Software, and movies were assembled from individual images using ImageJ.
# Previous studies have indicated a role for 12,13-diHOME to increase fatty acid uptake. To test whether 12,13-diHOME increases fatty acid uptake in cardiomyocytes, cardiomyocytes constitutively expressing luciferase in vitro were isolated. Cells were treated with FFA-SS Luc, a fatty acid conjugated to luciferin, in the presence of 12,13-diHOME or a vehicle control.
# isolated cardiomyocytes [4] = assay: Seahorse bioanalyzer respiration, wild-type cardiomyocytes; assay type: cell-based, mice
# Procedure: (§3) Seahorse bioanalyzer. Cardiomyocytes were isolated from 12-24 week old male C57BL/6 male (Charles river) or NOS1^−/− mice (B6; 129S4-Nos1^tm1Pth/J; stock no. 002633; Jackson Labs), chow fed mice. Isolated cardiomyocytes (25,000 per well) were seeded onto laminin-coated Seahorse Plates (Agilent) according to standard protocols. Cells were treated for 1 h with 10 μM 12,13-diHOME or were untreated. The oxygen-consumption rates (OCR; indicating mitochondrial respiration) and extracellular acidification rates (ECAR; indicating glycolysis rate) were monitored in a Seahorse XF24 instrument using the standard protocol of 3-min mix, 2-min wait and 3-min measure. Carbonyl cyanide-p-trifluoromethoxy-phenyl-hydrazon (FCCP; 2 μM) was used to determine the cells maximal respiratory capacity by allowing the electron transport chain to function at its maximal rate (maximal respiratory capacity is derived by subtracting non-mitochondrial respiration from the FCCP rate). Oligomycin (a complex V inhibitor; 2 μM) was used to derive ATP-linked respiration (by subtracting the oligomycin rate from baseline cellular OCR) and proton leak respiration (by subtracting non-mitochondrial respiration from the oligomycin rate). AntimycinA/Roteone (mitochondrial inhibitors; 0.5 μM) was used to determine non-mitochondrial respiration. For mechanistic experiments, cells were treated for 1 h with tetracaine (specific RyR inhibitor; 1 mM), 2,3-butanedione monoxime (BDM; myosin-ATPase inhibitor; […]) and nifedipine (L-type calcium channel inhibitor; 10 μM) were used. Data from wells of the same treatment group were averaged together and analyzed directly using Waves software. For the normalization of respiration to protein content, cells were lysed in RIPA buffer and protein concentration was measured by Bradford assay.
# NOS1^−/− cardiomyocytes = assay: Seahorse bioanalyzer respiration, NOS1−/− cardiomyocytes; assay type: cell-based, mice; conditions: vs vehicle
# Procedure: as §3
# Sham or +BAT mice = assay: Oral gavage of sEH inhibitors in Sham or +BAT mice, in vivo cardiac hemodynamics; conditions: daily oral gavage 0.5 mg/kg for 2 weeks, starting 10 weeks after surgery
# Procedure: Oral gavage of sEH inhibitors. C57BL/6 male mice (Charles River Laboratories) were fed a normal chow diet before and throughout the experiment. Sham and +BAT mice underwent daily oral gavage of sEH inhibitors beginning 10 weeks after the transplant or sham surgery. Mice underwent daily oral gavage with vehicle (Phosphate Buffer Saline [PBS]), or 25 mg/L AUDA in PBS (Cayman Chemicals #10007927), or 50 mg/L t-AUCB in PBS (Cayman Chemicals #16568). Mice were gavaged at 0.5 mg/kg daily for 14-16 days.
# as §1, with “ADInstruments. […]” for “ADInstruments.”
# [5] = incubation with RyR2 inhibitor tetracaine
smiles,measurement,setting,value
"CCCCC/C=C\CC(O)C(O)CCCCCCCC(=O)O (stereo not drawn) [9,10-diHOME]",diastolic function,[1],no effect
same,systolic function,[1],no effect
CCCCC/C=C\C=C\C(O)CCCCCCCC(=O)O (stereo not drawn) [9-HODE],diastolic function,[1],no effect
same,systolic function,[1],no effect
"CCCCCC(O)C(O)C/C=C\CCCCCCCC(=O)O (stereo not drawn) [12,13-diHOME]",diastolic function,[1],improved
same,systolic function,[1],improved
same,diastolic function,NOS1^−/− mice,no effect
same,systolic function,NOS1^−/− mice,no effect
same,Ca2+ transient amplitude,isolated cardiomyocytes [2],increase
same,maximal velocity of relengthening (−dL/dt),isolated cardiomyocytes [2],greater
same,maximal velocity of shortening (+dL/dt),isolated cardiomyocytes [2],greater
same,peak cardiomyocyte shortening,isolated cardiomyocytes [2],increased
same,Ca2+ transients,NOS1^−/− cardiomyocyte,no effect
same,kinetics (maximal velocity of shortening and relengthening),NOS1^−/− cardiomyocyte,no effect
same,peak shortening,NOS1^−/− cardiomyocyte,no effect
same,fatty acid uptake,[3],significantly elevated
same,basal oxygen consumption rates (OCR),"isolated cardiomyocytes [4]; 10 μM for 1 h, vs vehicle",increased
same,maximal respiratory capacity,"isolated cardiomyocytes [4]; 10 μM for 1 h, vs vehicle",increased
same,non-mitochondrial respiration,"isolated cardiomyocytes [4]; 10 μM for 1 h, vs vehicle",increased
same,basal OCR,isolated cardiomyocytes [4]; in the presence or absence of RyR2 inhibitor tetracaine,increased
same,"effect of 12,13-diHOME on maximal respiration",isolated cardiomyocytes [4]; [5],blunted
same,"effect of 12,13-diHOME on non-mitochondrial respiration",isolated cardiomyocytes [4]; [5],blunted
same,"effect of 12,13-diHOME on basal OCR under myosin inhibition",isolated cardiomyocytes [4]; with myosin inhibitor BDM,did not prevent
same,"effect of 12,13-diHOME on maximal respiration under myosin inhibition",isolated cardiomyocytes [4]; with myosin inhibitor BDM,did not prevent
same,"effect of 12,13-diHOME on non-mitochondrial respiration under myosin inhibition",isolated cardiomyocytes [4]; with myosin inhibitor BDM,prevented the increase
same,basal oxygen consumption rates (OCR),NOS1^−/− cardiomyocytes,no effect
same,maximal respiratory capacity,NOS1^−/− cardiomyocytes,no effect
same,non-mitochondrial respiration,NOS1^−/− cardiomyocytes,no effect
O=C(O)CCCCCCCCCCCNC(=O)NC12CC3CC(CC(C3)C1)C2 [AUDA],cardiac function (systolic and diastolic) of +BAT vs Sham mice in the presence of sEH inhibitor,Sham or +BAT mice,no effect of +BAT to improve cardiac function
"CCCCNc1ccc(C(=O)OCCN(C)C)cc1 [tetracaine, reference compound]",maximal respiration,"isolated cardiomyocytes [4]; tetracaine 1 mM for 1 h, independent of 12,13-diHOME",decrease
